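Following 48 hours of exposure in 96-well plates, responses at five concentrations were used to interpolate endpoints linearly. At the TGI there is no net growth.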
Tests used:
Experiment in all cases: growth of human tumour cells (NCI), 48 h
[1] = system: SK-MEL-28 melanoma
[2] = system: NCI-H460 lung
[3] = system: DMS 114 small cell lung
[4] = system: A498 renal
[5] = system: SN12C renal
[6] = system: HOP-18 NSCLC
[7] = system: RPMI-8226 leukemia
[8] = system: SF-268 CNS
[9] = system: UACC-257 melanoma
[10] = system: MOLT-4 leukemia
[11] = system: SNB-75 CNS
[12] = system: RXF 393 renal
[13] = system: KM12 colon
[14] = system: SF-539 CNS
[15] = system: ACHN renal
[16] = system: HCT-116 colon
[17] = system: SNB-78 CNS
[18] = system: EKVX NSCLC
[19] = system: SK-MEL-2 melanoma
[20] = system: SK-MEL-5 melanoma
[21] = system: COLO 205 colon
[22] = system: A549 NSCLC
[23] = system: DMS 273 small cell lung
[24] = system: HT29 colon
[25] = system: U251 CNS
[26] = system: HCC-2998 colon
[27] = system: K-562 leukemia
[28] = system: NCI-H226 lung
[29] = system: IGROV1 ovarian
[30] = system: MALME-3M melanoma
[31] = system: HCT-15 colon
[32] = system: CCRF-CEM leukemia
[33] = system: LXFL 529 NSCLC
[34] = system: KM20L2 colon
[35] = system: DLD-1 colon
[36] = system: SR leukemia
[37] = system: HOP-92 NSCLC
[38] = system: HL-60(TB) leukemia
[39] = system: SW-620 colon
[40] = system: SF-295 CNS
[41] = system: TK-10 renal
[42] = system: NCI-H23 lung
[43] = system: XF 498 CNS
[44] = system: OVCAR-8 ovarian
[45] = system: LOX IMVI melanoma
[46] = system: OVCAR-3 ovarian
[47] = system: HOP-62 NSCLC
[48] = system: UACC-62 melanoma
[49] = system: M19-MEL melanoma
[50] = system: SNB-19 CNS
[51] = system: M14 melanoma
[52] = system: 786-0 renal
[53] = system: UO-31 renal
[54] = system: NCI-H522 lung
[55] = system: OVCAR-4 ovarian
[56] = system: SK-OV-3 ovarian
[57] = system: CAKI-1 renal

## c1ccc2c(c1)CCCC/C2=N/OCC1CO1 (stereo not drawn)
[1]
  TGI: > 100 µM
[2]
  TGI: > 100 µM
[3]
  TGI: > 100 µM
[4]
  TGI: > 100 µM
[5]
  TGI: > 100 µM
[6]
  TGI: > 100 µM
[7]
  TGI: 72.9 µM
[8]
  TGI: > 100 µM
[9]
  TGI: > 100 µM
[10]
  TGI: > 100 µM
[11]
  TGI: > 100 µM
[12]
  TGI: > 100 µM
[13]
  TGI: > 100 µM
[14]
  TGI: > 100 µM
[15]
  TGI: > 100 µM
[16]
  TGI: > 100 µM
[17]
  TGI: > 100 µM
[18]
  TGI: > 100 µM
[19]
  TGI: > 100 µM
[20]
  TGI: > 100 µM
[21]
  TGI: > 100 µM
[22]
  TGI: > 100 µM
[23]
  TGI: > 100 µM
[24]
  TGI: > 100 µM
[25]
  TGI: > 100 µM
[26]
  TGI: > 100 µM
[27]
  TGI: > 100 µM
[28]
  TGI: 90.9 µM
[29]
  TGI: > 100 µM
[30]
  TGI: > 100 µM
[31]
  TGI: > 100 µM
[32]
  TGI: > 100 µM
[33]
  TGI: > 100 µM
[34]
  TGI: > 100 µM
[35]
  TGI: > 100 µM
[36]
  TGI: > 100 µM
[37]
  TGI: 69.2 µM
[38]
  TGI: 44.1 µM
[39]
  TGI: > 100 µM
[40]
  TGI: > 100 µM
[41]
  TGI: > 100 µM
[42]
  TGI: > 100 µM
[43]
  TGI: 77.3 µM
[44]
  TGI: > 100 µM
[45]
  TGI: > 100 µM

## O=C1CNS(=O)(=O)N1
[46]
  TGI: > 100 µM
[1]
  TGI: > 100 µM
[3]
  TGI: > 100 µM
[4]
  TGI: > 100 µM
[5]
  TGI: > 100 µM
[7]
  TGI: > 100 µM
[8]
  TGI: > 100 µM
[47]
  TGI: > 100 µM
[9]
  TGI: > 100 µM
[48]
  TGI: > 100 µM
[49]
  TGI: > 100 µM
[10]
  TGI: > 100 µM
[50]
  TGI: > 100 µM
[11]
  TGI: > 100 µM
[51]
  TGI: > 100 µM
[13]
  TGI: > 100 µM
[14]
  TGI: > 100 µM
[16]
  TGI: > 100 µM
[17]
  TGI: > 100 µM
[18]
  TGI: > 100 µM
[19]
  TGI: > 100 µM
[21]
  TGI: > 100 µM
[22]
  TGI: > 100 µM
[52]
  TGI: > 100 µM
[23]
  TGI: > 100 µM
[53]
  TGI: > 100 µM
[24]
  TGI: > 100 µM
[26]
  TGI: > 100 µM
[27]
  TGI: > 100 µM
[28]
  TGI: > 100 µM
[54]
  TGI: > 100 µM
[29]
  TGI: > 100 µM
[30]
  TGI: > 100 µM
[32]
  TGI: > 100 µM
[33]
  TGI: > 100 µM
[35]
  TGI: > 100 µM
[36]
  TGI: > 100 µM
[55]
  TGI: > 100 µM
[56]
  TGI: > 100 µM
[37]
  TGI: > 100 µM
[38]
  TGI: > 100 µM
[39]
  TGI: > 100 µM
[40]
  TGI: > 100 µM
[41]
  TGI: > 100 µM
[42]
  TGI: > 100 µM
[43]
  TGI: > 100 µM
[44]
  TGI: > 100 µM
[57]
  TGI: > 100 µM
